Assays:
PI3Kdelta = PI3Kdelta (Homo sapiens (Human), UniProt O00329); experiment: HTRF PI3K biochemical assay, delta isoform; conditions: 0.3 nM enzyme, 100 uM ATP, 5 uM PIP2, form screened: Neutral
From the text: (§1) HTRF PI3K Biochemical Assay to Measure Intrinsic Potency of Compound Inhibitors
(§2) The PI3-Kinase biochemical assays were developed to measure the intrinsic potency and compound dependent inhibition of the alpha, beta, delta, and gamma PI3K isoform enzymes.
(§3) This assay was developed and further optimized from a kit produced by Upstate (Millipore catalog #33-047) and has been configured for HTS (high throughput screening) and SAR screening. Briefly, this procedure exploits the exquisite specificity and high affinity binding of enzyme reaction substrate phosphatidyl(3,4,5)triphosphate (PIP3) to the GRP1 pleckstrin homology (PH) domain to generate the signal. In the absence of PIP3, an HTRF (Homogeneous Time-Resolved Fluorescence energy transfer) complex is formed consisting of europium (Eu)-labeled anti-GST, GSTtagged GRP1-PH domain, biotin-PIP3 and streptavidin conjugated APC. The native PIP3 produced by PI3-Kinase activity disrupts in a competitive manner the biotin-PIP3 from the PH domain, resulting in the loss of energy transfer (HTRF complex) and a decrease in the signal. The format of this assay is the same for all 4 isoforms of PI3K; the differences lie in the concentration of enzyme used to achieve robust assay window. The alpha, beta, and delta assays are run at 0.5, 1, and 0.3 nM enzymes and the gamma assay is run at 5 nM enzyme. The ATP concentration is 100 uM in the alpha, beta, and delta assays and 50 uM ATP in the gamma assay. All reactions are run at 5 uM PIP2.
(§4) Compounds are serially diluted (3-fold in 100% DMSO) across a 384-well polypropylene source plated from column 3 to column 12 and column 13 to column 22, to yield 10 concentration dose response for each test compound. Columns 1, 2, 23 and 24 contain either only DMSO or pharmacological known control inhibitor. Once titrations are made, 2.5 nL of the compounds on 384 well plates are reformatted and transferred by acoustic dispense in quadruplicates to a 1536 assay plate (Greiner) to assay across all four PI3K isoform enzymes.
(§5) The PI3-Kinase biochemical assay was optimized using the HTRF kit provided by Upstate (Millipore). The assay kit contains six reagents: 1) 4× Reaction Buffer; 2) native PIP2 (substrate); 3) Stop (EDTA); 4) Detection Mix A (Streptavidin-APC); 5) Detection Mix B (Eu-labeled Anti-GST plus GST-tagged PH-domain); 6) Detection Mix C. In addition, the following items were obtained or purchased; PI3Kinase (alpha 14-602, beta 14-603, gamma 14-558 and delta 14-604 from Upstate; Millipore), dithiothreitol (Sigma, D-5545), Adenosine-5′ triphosphate (InVitrogen, Cat#AS001A), native PIP3 (PI(3,4,5)P3, diC8, H^+, CELLSIGNALS, INC. Cat #907) DMSO (Sigma, 472301).
(§6) PI3Kinase Reaction Buffer is prepared by dilution the stock 1:4 with de-ionized water. DTT, PIP2 and Biotin-PIP3 were added to 1536 assay plate at a final concentration of 5 mM, […] on the day of use. Enzyme addition and compound pre-incubation are initiated by the addition of 1.25 ul of PI3K (at twice its final concentration) in the 1× reaction buffer to all wells using a BioRaptor. Plates are incubated at RT for 15 minutes. Reactions are initiated by addition of 1.25 ul of 2× substrate solution (PIP2 and ATP in 1× reaction buffer) using BioRaptor. Plates are incubated in humidified chamber at RT for one hour. Reactions are quenched by addition of 0.625 uL of stop solution to all wells using the BioRaptor. The quenched reactions are then processed to detect product formation by adding 0.625 uL of Detection Solution to all wells using the BioRaptor (Detection mix C, Detection Mix A, and Detection Mix B combined together in an 18:1:1 ratio prepared 2 hours prior to use). Following a one hour incubation in the dark, the HTRF signal is measured on the Envision plate reader set for 330 nm excitation and dual emission detection at 620 nM (Eu) and 665 nM (APC).

PI3Kalpha = PI3Kalpha (Homo sapiens (Human), UniProt P42336); experiment: HTRF PI3K biochemical assay, alpha isoform (selectivity versus PI3Kalpha); conditions: relative ratio (PI3K-alpha IC50 value/PI3K-delta IC50 value); form screened: Neutral
PI3Kalpha, sequence (P42336 whole entry, canonical isoform): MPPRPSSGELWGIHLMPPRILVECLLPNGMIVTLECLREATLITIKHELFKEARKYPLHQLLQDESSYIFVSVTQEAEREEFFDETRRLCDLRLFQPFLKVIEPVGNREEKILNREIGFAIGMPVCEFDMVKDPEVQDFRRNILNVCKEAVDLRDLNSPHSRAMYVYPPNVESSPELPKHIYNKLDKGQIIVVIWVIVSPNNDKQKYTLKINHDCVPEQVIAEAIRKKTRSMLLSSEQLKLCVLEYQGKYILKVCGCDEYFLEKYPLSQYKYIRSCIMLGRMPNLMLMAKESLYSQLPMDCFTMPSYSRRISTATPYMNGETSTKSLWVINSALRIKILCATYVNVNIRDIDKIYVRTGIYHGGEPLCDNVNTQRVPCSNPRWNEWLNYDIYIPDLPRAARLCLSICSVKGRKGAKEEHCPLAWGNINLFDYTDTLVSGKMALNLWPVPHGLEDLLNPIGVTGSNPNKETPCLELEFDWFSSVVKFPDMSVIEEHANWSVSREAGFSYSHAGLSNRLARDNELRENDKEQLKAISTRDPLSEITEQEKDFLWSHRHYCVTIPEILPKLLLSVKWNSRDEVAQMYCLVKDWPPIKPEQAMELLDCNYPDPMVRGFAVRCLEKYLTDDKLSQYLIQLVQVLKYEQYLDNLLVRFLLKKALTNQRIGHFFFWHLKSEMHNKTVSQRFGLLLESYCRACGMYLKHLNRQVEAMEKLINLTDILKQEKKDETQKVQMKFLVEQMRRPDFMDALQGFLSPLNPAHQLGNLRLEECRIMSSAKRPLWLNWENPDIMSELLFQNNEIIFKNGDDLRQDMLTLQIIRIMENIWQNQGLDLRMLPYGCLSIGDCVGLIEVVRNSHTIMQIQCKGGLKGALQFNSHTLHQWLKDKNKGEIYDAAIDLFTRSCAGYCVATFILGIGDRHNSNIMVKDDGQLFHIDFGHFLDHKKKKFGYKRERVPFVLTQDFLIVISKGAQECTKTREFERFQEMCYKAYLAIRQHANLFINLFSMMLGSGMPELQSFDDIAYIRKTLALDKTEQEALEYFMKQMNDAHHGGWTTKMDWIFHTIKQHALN
PI3Kalpha, sequence (P27986 whole entry partner, canonical isoform): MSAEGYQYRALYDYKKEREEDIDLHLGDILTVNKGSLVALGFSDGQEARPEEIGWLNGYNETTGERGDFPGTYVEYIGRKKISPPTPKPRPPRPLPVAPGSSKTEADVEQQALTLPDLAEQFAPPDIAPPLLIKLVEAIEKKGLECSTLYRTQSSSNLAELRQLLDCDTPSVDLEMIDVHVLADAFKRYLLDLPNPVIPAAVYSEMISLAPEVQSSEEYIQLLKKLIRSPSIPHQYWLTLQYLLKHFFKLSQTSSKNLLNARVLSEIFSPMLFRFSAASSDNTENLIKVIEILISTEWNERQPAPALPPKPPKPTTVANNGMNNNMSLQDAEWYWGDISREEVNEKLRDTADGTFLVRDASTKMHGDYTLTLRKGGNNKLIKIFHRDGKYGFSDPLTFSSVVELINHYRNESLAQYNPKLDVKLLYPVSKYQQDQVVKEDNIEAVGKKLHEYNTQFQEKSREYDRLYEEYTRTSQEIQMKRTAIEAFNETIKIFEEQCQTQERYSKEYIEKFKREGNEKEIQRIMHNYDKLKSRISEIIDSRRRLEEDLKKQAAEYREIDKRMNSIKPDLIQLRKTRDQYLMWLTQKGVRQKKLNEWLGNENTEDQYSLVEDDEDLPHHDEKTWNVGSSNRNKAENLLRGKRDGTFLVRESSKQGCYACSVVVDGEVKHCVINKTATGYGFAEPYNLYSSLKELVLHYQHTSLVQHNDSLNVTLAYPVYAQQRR
From the text: as §1, §2, §3, §4, §5
as §6, with “[…]. […]” for “(APC).”

PI3Kdelta, sequence (O00329 whole entry, canonical isoform): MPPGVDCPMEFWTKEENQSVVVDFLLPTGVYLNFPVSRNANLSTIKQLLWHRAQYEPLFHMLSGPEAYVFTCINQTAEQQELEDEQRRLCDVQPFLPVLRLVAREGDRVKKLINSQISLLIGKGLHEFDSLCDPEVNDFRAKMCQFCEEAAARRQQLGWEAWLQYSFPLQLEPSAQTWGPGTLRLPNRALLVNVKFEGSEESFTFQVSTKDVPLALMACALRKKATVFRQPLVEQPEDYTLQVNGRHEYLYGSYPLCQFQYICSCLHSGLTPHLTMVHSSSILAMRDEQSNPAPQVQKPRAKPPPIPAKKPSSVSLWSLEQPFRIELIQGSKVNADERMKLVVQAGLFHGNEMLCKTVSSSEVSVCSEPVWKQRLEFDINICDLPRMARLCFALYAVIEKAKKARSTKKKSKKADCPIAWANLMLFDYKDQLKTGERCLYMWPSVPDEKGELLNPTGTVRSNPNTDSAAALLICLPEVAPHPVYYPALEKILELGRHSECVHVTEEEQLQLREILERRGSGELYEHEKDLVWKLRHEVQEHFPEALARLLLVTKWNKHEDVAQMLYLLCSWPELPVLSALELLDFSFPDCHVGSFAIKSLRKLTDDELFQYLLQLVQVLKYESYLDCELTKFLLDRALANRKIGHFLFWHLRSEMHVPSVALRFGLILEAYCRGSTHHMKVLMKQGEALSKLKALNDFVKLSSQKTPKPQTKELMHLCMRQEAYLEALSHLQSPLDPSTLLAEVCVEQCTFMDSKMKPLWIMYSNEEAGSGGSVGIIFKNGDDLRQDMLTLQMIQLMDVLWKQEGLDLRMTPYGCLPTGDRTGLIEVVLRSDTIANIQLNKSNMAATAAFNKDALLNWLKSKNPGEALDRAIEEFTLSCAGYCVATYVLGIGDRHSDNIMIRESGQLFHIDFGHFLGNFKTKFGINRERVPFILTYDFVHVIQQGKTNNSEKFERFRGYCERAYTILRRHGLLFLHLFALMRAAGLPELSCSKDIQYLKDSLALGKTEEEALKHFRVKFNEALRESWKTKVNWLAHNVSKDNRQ
PI3Kdelta, sequence (P27986 whole entry partner, canonical isoform): as the sequence (P27986 whole entry partner, canonical isoform) above

Row | Structure (SMILES) | IC50 (PI3Kdelta) | Selectivity versus PI3Kalpha (PI3Kalpha)
1 | CC[C@H](Nc1ncnc2c1nc(-c1cnc(C)nc1)n2CC)C(=O)N1CC[C@@H]2CCCC[C@@H]2C1 [Compound 2-20, 9-ethyl-8-(2-methylpyrimidin-5-yl)-N-{(1S)-1-[(cis)-octahydroisoquinolin-2(1H)-ylcarbonyl]propyl}-9H-purin-6-amine] | 0.014 µM | >10
2 | CC[C@H](Nc1ncnc2c1nc(-c1cnc(C)nc1)n2CC)C(=O)N1CCCOCC1 [Compound 2-25, 9-ethyl-8-(2-methylpyrimidin-5-yl)-N-[(1S)-1-(1,4-oxazepan-4-ylcarbonyl)propyl]-9H-purin-6-amine] | 0.021 µM | >10
3 | CC[C@H](Nc1ncnc2c1nc(-c1cnc(C)nc1)n2CC)C(=O)N1CCOCC12CCC2 [Compound 2-27, 9-ethyl-8-(2-methylpyrimidin-5-yl)-N-[(1S)-1-(8-oxa-5-azaspiro[3.5]non-5-ylcarbonyl)propyl]-9H-purin-6-amine] | 0.011 µM | >10
4 | CC[C@H](Nc1ncnc2c1nc(-c1cnc(C)nc1)n2CC)C(=O)N1CCOC2(CC2)C1 [Compound 2-29, 9-ethyl-8-(2-methylpyrimidin-5-yl)-N-[(1S)-1-(4-oxa-7-azaspiro[2.5]oct-7-ylcarbonyl)propyl]-9H-purin-6-amine] | 0.011 µM | >10
5 | CC[C@H](Nc1ncnc2c1nc(-c1cnc(C)nc1)n2CC)C(=O)N1C[C@@H]2C[C@H]1CO2 [Compound 2-31, 9-ethyl-8-(2-methylpyrimidin-5-yl)-N-{(1S)-1-[(1S,4S)-2-oxa-5-azabicyclo[2.2.1]hept-5-ylcarbonyl]propyl}-9H-purin-6-amine] | 0.037 µM | >10
6 | CC[C@H](Nc1ncnc2c1nc(-c1cnc(C)nc1)n2CC)C(=O)N1CCOCC1C(C)C (stereo partly drawn) [Compound 2-32, 9-ethyl-N-[(1S)-1-{[3-(1-methylethyl)morpholin-4-yl]carbonyl}propyl]-8-(2-methylpyrimidin-5-yl)-9H-purin-6-amine] | 0.083 µM | >10
7 | CC[C@H](Nc1ncnc2c1nc(-c1cnc(C)nc1)n2CC)C(=O)N1CCOC(COC)C1 (stereo partly drawn) [Compound 2-35, 9-ethyl-N-[(1S)-1-{[2-(methoxymethyl)morpholin-4 yl]carbonyl}propyl]-8-(2-methylpyrimidin-5-yl)-9H-purin-6-amine] | 0.039 µM | >10
8 | CCn1c(-c2cnc(C)nc2)nc2c(N[C@@H](C)C(=O)N3C[C@@H](C)O[C@@H](C)C3)ncnc21 [Compound 2-39, N-{(1S)-2-[(cis)-2,6-dimethylmorpholin-4-yl]-1-methyl-2-oxoethyl}-9-ethyl-8-(2-methylpyrimidin-5-yl)-9H-purin-6-amine] | 0.012 µM | >10

Continued by falling IC50 (PI3Kdelta), values first:

Row | IC50 (PI3Kdelta) | Selectivity versus PI3Kalpha (PI3Kalpha) | Structure (SMILES)
9 | 0.112 µM | >10 | CC[C@H](Nc1ncnc2c1nc(-c1cnc(C)nc1)n2CC)C(=O)N1CC[C@@H](F)C1 [Compound 2-16, 9-ethyl-N-[(1S)-1-{[(3R)-3-fluoropyrrolidin-1-yl]carbonyl}propyl]-8-(2-methylpyrimidin-5-yl)-9H-purin-6-amine]
10 | 0.11 µM | >10 | CCn1c(-c2cnc(C)nc2)nc2c(N[C@@H](CC(N)=O)C(=O)N3C[C@@H](C)O[C@@H](C)C3)ncnc21 [Compound 2-41, (3S)-4-[(cis)-2,6-dimethylmorpholin-4-yl]-3-{[9-ethyl-8-(2-methylpyrimidin-5-yl)-9H-purin-6-yl]amino}-4-oxobutanamide]
11 | 0.074 µM | >10 | CC[C@H](Nc1ncnc2c1nc(-c1cnc(C)nc1)n2CC)C(=O)N1CC(OC)C1 [Compound 2-17, 9-ethyl-N-{(1S)-1-[(3-methoxyazetidin-1-yl)carbonyl]propyl}-8-(2-methylpyrimidin-5-yl)-9H-purin-6-amine]
12 | 0.037 µM | >10 | CC[C@H](Nc1ncnc2c1nc(-c1cnc(C)nc1)n2CC)C(=O)N1CC[C@H](F)C1 [Compound 2-15, 9-ethyl-N-[(1S)-1-{[(3S)-3-fluoropyrrolidin-1-yl]carbonyl}propyl]-8-(2-methylpyrimidin-5-yl)-9H-purin-6-amine]
13 | 0.032 µM | >10 | CC[C@H](Nc1ncnc2c1nc(-c1cnc(C)nc1)n2CC)C(=O)N1CCOC[C@@H]1C [Compound 2-26, 9-ethyl-N-[(1S)-1-{[(3S)-3-methylmorpholin-4-yl]carbonyl}propyl]-8-(2-methylpyrimidin-5-yl)-9H-purin-6-amine]
14 | 0.026 µM | >10 | CC[C@H](Nc1ncnc2c1nc(-c1cnc(C)nc1)n2CC)C(=O)N1CCC(C#N)CC1 [Compound 2-13, 1-[(2S)-2-{[9-ethyl-8-(2-methylpyrimidin-5-yl)-9H-purin-6-yl]amino}butanoyl]piperidine-4-carbonitrile]
15 | 0.014 µM | >10 | CC[C@H](Nc1ncnc2c1nc(-c1cnc(C)nc1)n2CC)C(=O)N1CC2(CCCC2)C1 [Compound 2-21, N-[(1S)-1-(2-azaspiro[3.4]oct-2-ylcarbonyl)propyl]-9-ethyl-8-(2-methylpyrimidin-5-yl)-9H-purin-6-amine]
16 | 0.012 µM | >10 | CC[C@H](Nc1ncnc2c1nc(-c1cnc(C)nc1)n2CC)C(=O)N1CCOCC1(C)C [Compound 2-34, N-{(1S)-1-[(3,3-dimethylmorpholin-4-yl)carbonyl]propyl}-9-ethyl-8-(2-methylpyrimidin-5-yl)-9H-purin-6-amine]
17 | 0.011 µM | >10 | CC[C@H](Nc1ncnc2c1nc(-c1cnc(C)nc1)n2CC)C(=O)N1CCCC(F)(F)C1 [Compound 2-12, N-{(1S)-1-[(3,3-difluoropiperidin-1-yl)carbonyl]propyl}-9-ethyl-8-(2-methylpyrimidin-5-yl)-9H-purin-6-amine]
18 | 0.0098 µM | >10 | CC[C@H](Nc1ncnc2c1nc(-c1cnc(C)nc1)n2CC)C(=O)N1CCOC(C)(C)C1 [Compound 2-33, N-{(1S)-1-[(2,2-dimethylmorpholin-4-yl)carbonyl]propyl}-9-ethyl-8-(2-methylpyrimidin-5-yl)-9H-purin-6-amine]
19 | 0.0041 µM | >10 | CCn1c(-c2cnc(C)nc2)nc2c(N[C@H](C(=O)N3C[C@@H](C)O[C@@H](C)C3)C3CC3)ncnc21 [Compound 2-40, N-{(1S)-1-cyclopropyl-2-[(cis)-2,6-dimethylmorpholin-4-yl]-2-oxoethyl}-9-ethyl-8-(2-methylpyrimidin-5-yl)-9H-purin-6-amine]
